This is an account of results in patent US20150374680A1, “POCHOXIME CONJUGATES USEFUL FOR THE TREATMENT OF HSP90 RELATED PATHOLOGIES” (UNIVERSITE DE STRASBOURG, priority 2010, published 2015).

For test [1], the system named is HER2+BT474 breast carcinoma cells. Description: Proliferation assay in BT474 (ATPlite). Type of test: cell-based. The settings on record: Homo sapiens, BT-474, 72 hours, average of three independent experiments. On the procedure: (§1) The compounds were dissolved in 100% DMSO to make 10 mM stock solutions. HER2+BT474 breast carcinoma cells were cultured in DMEM/F12 media, supplemented with 10% FBS. Log-phase growing BT474 cells were seeded in 96 well plates at 1.5×10E4 per well. At this cell density, BT474 is expected to reach confluency about 70-80% in 3 days. Different dilutions of compounds or vehicle in 200 μl (concentration range 0.004-10 μM) were added to the cells and incubated for 72 hours. Upon completion of the incubation, media were gently removed by suction and 100 μl of ATPlite solution (Perkin Elmer) was added in each well. Viable cells were measured by detecting luminescence generated from reaction of ATPlite solution and ATP in the cells using a 96-well microplate luminescence reader. Relative luminescence light unit is correlated to the amount of ATP in viable cells. The assays were performed in duplicates. IC50 was calculated using XLfit. The IC50 shown in Table 4 below is the average IC50 from three independent experiments.

Another test has as its system HCC1569. The test can be described thus: Proliferation assay in HCC1569. Type of test: cell-based. To be noted: Homo sapiens, HCC1569, Breast (Her2+; Her2i res). On the procedure: as §1
(§2) Additional proliferation assays were performed for certain exemplified compounds using the methods similar to the one described above in multiple cancer cell lines.

The next test deals with H1975. The test can be described thus: Proliferation assay in H1975. Type of test: cell-based. To be noted: Homo sapiens, NCI-H1975, H1975, Lung (EGFR mut). On the procedure:
as §1, §2

The next test concerns NCI-H2228. Description: Proliferation assay in NCI-H2228. Type of test: cell-based. To be noted: Homo sapiens, NCI-H2228, Lung (EML4-ALK+). On the procedure:
as §1, §2

The next test has as its system H23. Description: Proliferation assay in H23. To be noted: Homo sapiens, NCI-H23, H23, Lung. It counts as cell-based. On the procedure: as §1, §2
The next test concerns A549. Description: Proliferation assay in A549. Type of test: cell-based. To be noted: Homo sapiens, A549, Lung. On the procedure: as §1, §2
A further test relates to H460. Description: Proliferation assay in H460. Type of test: cell-based. To be noted: Homo sapiens, NCI-H460, H460, Lung. On the procedure: as §1, §2
The next test deals with N87. Description: Proliferation assay in N87. It counts as cell-based. To be noted: N87, Gastric (Her2+). On the procedure: as §1, §2
A further test deals with SKOV-3. Description: Proliferation assay in SKOV-3. Type of test: cell-based. The settings on record: Homo sapiens, SK-OV-3, SKOV-3, Ovarian (Her2+). On the procedure:
as §1, §2

A further test deals with A498. The test can be described thus: Proliferation assay in A498. Type of test: cell-based. To be noted: Homo sapiens, A498, Renal (VHL mut). On the procedure:
as §1, §2

The next test relates to HCC827. The test can be described thus: Proliferation assay in HCC827. It counts as cell-based. To be noted: Homo sapiens, HCC827, Lung (EGFR mut). On the procedure:
as §1, §2

A further test concerns RPM18226. Description: Proliferation assay in RPM18226. Type of test: cell-based. To be noted: RPM18226, Multiple myeloma. On the procedure:
as §1, §2

The test system of the next test is PC3. The test can be described thus: Proliferation assay in PC3. It counts as cell-based. To be noted: Homo sapiens, PC-3, PC3, Prostate. On the procedure:
as §1, §2

A further test relates to HCT116. The test can be described thus: Proliferation assay in HCT116. The settings on record: Homo sapiens, HCT-116, HCT116, Colon. Type of test: cell-based. On the procedure:
as §1, §2

For the next test, the system named is HT29. The test can be described thus: Proliferation assay in HT29. Type of test: cell-based. The settings on record: Homo sapiens, HT-29, HT29, Colon. On the procedure:
as §1, §2

Test [2] deals with HSP90 client protein in SKBR3 cell lines. To be noted: earlier work of the inventors; cited from earlier work.
In a further test the target is T1, human HSP90α (Homo sapiens, UniProt P07900).
T1 construct: purchased Stressgen SPP-776F
The test can be described thus: biochemical. Type of test: binding.

A further test deals with Her-2 in SkBr3 cells. The test can be described thus: Her-2 depletion in SkBr3 cells (pharmacodynamic marker of cellular efficacy). Type of test: cell-based. To be noted: Homo sapiens, SK-BR-3; SkBr3 cells treated with the inhibitor overnight; read-out: PD (μM), pharmacodynamic EC50, Her-2 depletion. On the procedure: FIG. 2. Cellular efficacy of pochoximes A1B5C1D1 (IC50). Depletion of Her-2 in SkBr3 cells were treated treated with the inhibitor for 18 h. […]

Consider `C[C@@H]1C/C=C/[C@@H](N)C/C=C/C(=N\OCC(=O)N2CCCCC2)Cc2cc(O)cc(O)c2C(=O)O1` [Compound 12Z], for which, in test [1], inhibition was half-maximal at 0.038 µM (IC50). That is a double-digit nanomolar value.
Compound `CC(=O)N[C@H]1/C=C/C[C@@H](C)OC(=O)c2c(O)cc(O)cc2CC(=N/OCC(=O)N2CCCCC2)/C=C/C1` [Compound 14Z] displayed an IC50 in test [1] of 0.27 µM.
As for `C[C@@H]1C/C=C/[C@@H](O)C/C=C/C(=N\OCC(=O)N2CCCCC2)Cc2cc(O)cc(O)c2C(=O)O1` [As-10a(6-S)-Z], the IC50 came out at 0.026 µM in test [1]; 100 nM with HCC1569; 35 nM with H1975; 77 nM in the test with NCI-H2228; 28 nM with H23; 22 nM with A549. The IC50 in the test on H460 came out at 15 nM; with N87 it was 11 nM; in the test on SKOV-3 it was 25 nM; with A498, 24 nM.
As for `C[C@@H]1C/C=C/[C@@H](N)C/C=C/C(=N\OCC(=O)N2CCCCC2)Cc2cc(O)cc(O)c2C(=O)O1` [As-13(6S)-Z], the IC50 was found to be 175 nM in the test on HCC1569; 105 nM in the test with HCC827; 51 nM with H1975; 139 nM in the test on NCI-H2228; 12 nM in the test with N87; 166 nM in the test with A498. Moreover, the IC50 was determined as 72 nM in the test with RPM18226, 82 nM with PC3, 101 nM in the test on HCT116 and 92 nM in the test on HT29.
`CC(=O)N[C@H]1/C=C/C[C@@H](C)OC(=O)c2c(O)cc(O)cc2CC(=N\OCC(=O)N2CCCCC2)/C=C/C1` [Compound 14E] registered an IC50 in test [1] of 0.223 µM.
Compound `C[C@@H]1C/C=C/[C@@H](N)C/C=C/C(=N/OCC(=O)N2CCCCC2)Cc2cc(O)cc(O)c2C(=O)O1` [Compound 12E] yielded an IC50 in [1] of 0.03 µM.
Consider `C[C@@H]1C/C=C/[C@@H](O)C/C=C/C(=N/OCC(=O)N2CCCCC2)Cc2c(Cl)c(O)cc(O)c2C(=O)O1` [As-10b(6-S)-E], for which the IC50 in test [1] came to 0.027 µM; in the test on HCC1569, 187 nM; in the test with H1975, 33 nM; in the test on NCI-H2228, 281 nM; in the test on H23, 36 nM; in the test on A549 it was 126 nM. Further, the IC50 in the test on N87 came to 13 nM; in the test on SKOV-3, 45 nM; with A498, 37 nM.
With pochoxime C, the “Concentration inducing client protein degradation” value in [2] was “low nM”.
For the compound `C[C@@H]1C/C=C/[C@@H](NC(=O)CS[C@@H]2OC(CO)[C@@H](O)C(O)C2O)C/C=C/C(=N/OCC(=O)N2CCCCC2)Cc2cc(O)cc(O)c2C(=O)O1` (stereo partly drawn) [Compound 5E], in [1], the IC50 came out at 7.84 µM.
Regarding `C[C@@H]1C/C=C/[C@@H](O)C/C=C/C(=N/OCC(=O)N2CCCCC2)Cc2cc(O)cc(O)c2C(=O)O1` [As-10a(6-S)-E], the half-inhibitory concentration (IC50) in test [1] was found to be 0.058 µM; in the test on HCC1569, 377 nM; with H1975, 73 nM; with NCI-H2228 it was 241 nM; in the test with H23 it was 88 nM; in the test on A549 it was 90 nM. Besides, the IC50 in the test on H460 was determined as 45 nM; in the test with N87 it was 73 nM; in the test on SKOV-3, 67 nM; with A498, 99 nM.
`C[C@@H]1C/C=C/[C@@H](O)C/C=C/C(=N\OCC(=O)N2CCCCC2)Cc2c(Cl)c(O)cc(O)c2C(=O)O1` [As-10b(6-S)-Z] returned an IC50 in test [1] of 0.824 µM.
In the case of `CC(C)CN(CC(C)C)C(=O)CON=C1C=CCCC=CCCOC(=O)c2c(O)cc(O)cc2C1` [Compound A1B1C4D19], the values for the EC50 at human HSP90α and in the test on Her-2 in SkBr3 cells were 94 nM and at most 5 µM, respectively.
The corresponding values for `CCC1CCCCN1C(=O)CON=C1C=CCCC=CCCOC(=O)c2c(O)cc(O)cc2C1` (stereo not drawn) [Compound A1B1C4D5] are 243 nM and under 1 µM.
`C[C@@H]1C/C=C/[C@@H](NC(=O)CS[C@@H]2OC(CO)[C@@H](O)C(O)C2O)C/C=C/C(=N\OCC(=O)N2CCCCC2)Cc2cc(O)cc(O)c2C(=O)O1` (stereo partly drawn) [Compound 5Z] showed an IC50 in test [1] of over 10 µM.
On the same count and under the same terms, then `C[C@@H]1C/C=C/[C@H](NC(=O)CS[C@@H]2OC(CO)[C@@H](O)C(O)C2O)C/C=C/C(=N\OCC(=O)N2CCCCC2)Cc2cc(O)cc(O)c2C(=O)O1` (stereo partly drawn) [Compound 11Z], with over 10 µM.
Take `O=C(CON=C1C=CCCC=CCCOC(=O)c2c(O)cc(O)cc2C1)NC1CCCCC1` [Compound A1B1C4D24]: the results for the EC50 at human HSP90α and in the test on Her-2 in SkBr3 cells were 155 nM and at most 5 µM, respectively.
The corresponding values for `O=C1OCCC=CCCC=CC(=NOCC(=O)N2CCCC2)Cc2cc(O)cc(O)c21` [Compound A1B1C4D17] are 219 nM and at most 0.5 µM.
In the case of `C[C@@H]1C/C=C/[C@H](N)C/C=C/C(=NOCC(=O)N2CCCCC2)Cc2cc(O)cc(O)c2C(=O)O1` [Compound 13], in test [1], the midpoint of inhibition, the IC50, lay at 0.097 µM.
With `CC1CN(C(=O)CON=C2C=CCCC=CCCOC(=O)c3c(O)cc(O)cc3C2)CC(C)O1` (stereo not drawn) [Compound A1B1C4D14], the EC50 was 337 nM on human HSP90α and at most 5 µM in the test with Her-2 in SkBr3 cells.
Taken in the same sequence, the figures for `O=C1OCCC=CCCC=CC(=NOCC(=O)N2CC=CCC2)Cc2cc(O)cc(O)c21` [Compound A1B1C4D9] were 22 nM and at most 0.5 µM.
Take `O=C1OCCC=CCCC=CC(=NOCC(=O)N2CCC(c3ccccc3)CC2)Cc2cc(O)cc(O)c21` [Compound A1B1C4D7]: the EC50 was 2240 nM on human HSP90α and over 10 µM in the test with Her-2 in SkBr3 cells.
`CC1=CC(=NOCC(=O)N2CCCCC2)Cc2cc(O)cc(O)c2C(=O)OCCC=CCC1` [Compound A1B3C4D1]: the EC50 was 46 nM on human HSP90α and at most 0.5 µM with Her-2 in SkBr3 cells.
With `CCCC1CC=CCCC(C)=CC(=NOCC(=O)N(CC)CC)Cc2c(Cl)c(O)cc(O)c2C(=O)O1` (stereo not drawn) [Compound A2B3C2D18], the figures for the EC50 at human HSP90α and in the test with Her-2 in SkBr3 cells were 900 nM and over 10 µM, respectively.
Taken in the same sequence, the figures for `CC1C=CCC(C)OC(=O)c2c(O)cc(O)c(Cl)c2CC(=NOCC(=O)N2CCCCC2)C=CC1` (stereo not drawn) [Compound A2B4C1D1] were 154 nM and at most 1 µM.
Taken in the same sequence, the figures for `CC1CCCC(C)N1C(=O)CON=C1C=CCCC=CCCOC(=O)c2c(O)cc(O)cc2C1` (stereo not drawn) [Compound A1B1C4D6] were 238 nM and under 5 µM.
Taken in the same sequence, the figures for `CC1C=CCCOC(=O)c2c(O)cc(O)cc2CC(=NOCC(=O)N2CCCCC2)C=CC1` (stereo not drawn) [Compound A1B4C4D1] were 21 nM and at most 0.5 µM.
As to pochoxime B, the “Concentration inducing client protein degradation” value in test [2] is “low nM”.
`CC(C)N(C(=O)CON=C1C=CCCC=CCCOC(=O)c2c(O)cc(O)cc2C1)C(C)C` [Compound A1B1C4D20]: the EC50 is 162 nM on human HSP90α and at most 1 µM in the test on Her-2 in SkBr3 cells.
With `CCCC1CC=CCCC=CC(=NOCC(=O)N2CCCCC2)Cc2cc(O)cc(O)c2C(=O)O1` (stereo not drawn) [Compound A1B1C2D1], the EC50 is 588 nM on human HSP90α and over 10 µM in the test on Her-2 in SkBr3 cells.
On to `CC1C=CCCOC(=O)c2c(O)cc(O)c(Cl)c2CC(=NOCC(=O)N2CCCCC2)C=CC1` (stereo not drawn) [Compound A2B4C4D1], for which the figures for the EC50 on human HSP90α and with Her-2 in SkBr3 cells were 170 nM and at most 5 µM, respectively.
In the case of `C[C@@H]1C/C=C/[C@H](NC(=O)CS[C@@H]2OC(CO)[C@@H](O)C(O)C2O)C/C=C/C(=N/OCC(=O)N2CCCCC2)Cc2cc(O)cc(O)c2C(=O)O1` (stereo partly drawn) [Compound 11E], the IC50 in [1] is 4.76 µM.
